# Source: patent US7601333B2, “Use of a tetrapeptide AcSDKP (SEQ ID No. 1) analog resistant to the angiotensin I converting enzyme for measuring glomerular filtration rate in a human or an animal and kit containing same” (Assistance Publique-Hopitaux de Paris, priority 2003, dated 2009)
# Read-outs that look alike come from different tables or passages of the source. Residues, ends and D or L forms follow the SMILES beside them.
# How the values were obtained:
# [1] = cited from earlier work
# in vivo = conditions: male, Wistar, rat, iv
# [2] = biological target: T1, ACE present in mouse plasma (Mus musculus, UniProt P09470); conditions: cited from earlier work
# T1 construct: host or cells: mouse plasma
# T1 sequence (P09470 35-1237 limits assumed): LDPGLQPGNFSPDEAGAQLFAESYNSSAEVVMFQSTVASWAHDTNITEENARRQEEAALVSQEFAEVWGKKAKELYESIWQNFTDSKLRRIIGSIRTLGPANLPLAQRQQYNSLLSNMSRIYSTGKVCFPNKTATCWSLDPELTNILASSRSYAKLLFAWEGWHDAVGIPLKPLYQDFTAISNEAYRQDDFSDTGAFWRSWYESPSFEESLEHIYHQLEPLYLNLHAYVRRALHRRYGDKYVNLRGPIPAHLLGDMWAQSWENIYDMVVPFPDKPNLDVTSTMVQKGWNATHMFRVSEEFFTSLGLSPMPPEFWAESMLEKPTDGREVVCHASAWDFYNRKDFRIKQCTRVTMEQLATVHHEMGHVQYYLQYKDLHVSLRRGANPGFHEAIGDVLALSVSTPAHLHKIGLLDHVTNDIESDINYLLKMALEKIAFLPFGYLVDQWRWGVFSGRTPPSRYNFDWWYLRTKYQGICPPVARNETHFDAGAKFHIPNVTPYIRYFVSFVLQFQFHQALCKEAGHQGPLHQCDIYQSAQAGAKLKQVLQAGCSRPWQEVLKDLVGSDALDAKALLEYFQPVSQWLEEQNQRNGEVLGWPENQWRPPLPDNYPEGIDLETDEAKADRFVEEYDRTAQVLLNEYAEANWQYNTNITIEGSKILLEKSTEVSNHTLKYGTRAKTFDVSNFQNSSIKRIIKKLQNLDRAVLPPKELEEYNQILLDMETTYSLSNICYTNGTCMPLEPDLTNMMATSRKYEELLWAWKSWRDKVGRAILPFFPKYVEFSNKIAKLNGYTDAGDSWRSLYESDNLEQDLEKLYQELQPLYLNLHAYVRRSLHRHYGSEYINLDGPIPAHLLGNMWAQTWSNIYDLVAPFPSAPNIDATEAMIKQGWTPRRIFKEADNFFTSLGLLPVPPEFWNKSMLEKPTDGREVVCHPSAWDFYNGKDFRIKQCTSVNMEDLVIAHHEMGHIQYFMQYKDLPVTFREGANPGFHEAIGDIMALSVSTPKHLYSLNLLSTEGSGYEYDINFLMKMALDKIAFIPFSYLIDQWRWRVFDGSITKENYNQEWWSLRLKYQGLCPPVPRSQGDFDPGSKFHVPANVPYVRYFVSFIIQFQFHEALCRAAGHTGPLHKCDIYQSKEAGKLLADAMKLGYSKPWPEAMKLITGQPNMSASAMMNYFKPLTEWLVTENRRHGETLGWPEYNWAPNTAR
# human ACE = test: In vitro degradation in the presence of human ACE; type: in vitro ADME; conditions: human converting enzyme (human ACE), peptide 100 nM, human converting enzyme 5 mU, pH 7.5, read-out: percentage of peptide assayed relative to the control; for remaining at 10 min, 100 nM: T10 min; for remaining at 1 h, 100 nM: T60 min; for remaining at 2 h, 100 nM: T120 min; for remaining at 4 h, 100 nM: T240 min; for remaining at 24 h, 100 nM: T1440 min; for remaining at 0.5 h, 100 nM: T30 min
# Experimental: The peptides (100 nM) were incubated with ground rat lung material (at 0.1 mg/ml) or human converting enzyme (5 mU final concentration) in the presence or absence of captopril (10 μM final concentration) in 0.1 M Tris/HCl buffer+0.3 mM NaCl, pH=7.5. A control comprising only the peptides in the presence of 0.1 M Tris/HCl buffer+0.3 mM NaCl, pH=7.5, was carried out.
# A methanol extraction was carried out in order to stop the reaction. At each time, the concentration of the nondegraded peptide was measured by enzyme immunoassay.
# The results were expressed as percentage of peptide assayed relative to the control for each sample time.
# plasma proteins = conditions: cited from earlier work
# N-terminal site of ACE = N-terminal site of ACE (Homo sapiens, UniProt P12821); conditions: AcSDKP as substrate, in vitro; cited from earlier work
# N-terminal site of ACE, sequence (P12821 40-624 limits assumed): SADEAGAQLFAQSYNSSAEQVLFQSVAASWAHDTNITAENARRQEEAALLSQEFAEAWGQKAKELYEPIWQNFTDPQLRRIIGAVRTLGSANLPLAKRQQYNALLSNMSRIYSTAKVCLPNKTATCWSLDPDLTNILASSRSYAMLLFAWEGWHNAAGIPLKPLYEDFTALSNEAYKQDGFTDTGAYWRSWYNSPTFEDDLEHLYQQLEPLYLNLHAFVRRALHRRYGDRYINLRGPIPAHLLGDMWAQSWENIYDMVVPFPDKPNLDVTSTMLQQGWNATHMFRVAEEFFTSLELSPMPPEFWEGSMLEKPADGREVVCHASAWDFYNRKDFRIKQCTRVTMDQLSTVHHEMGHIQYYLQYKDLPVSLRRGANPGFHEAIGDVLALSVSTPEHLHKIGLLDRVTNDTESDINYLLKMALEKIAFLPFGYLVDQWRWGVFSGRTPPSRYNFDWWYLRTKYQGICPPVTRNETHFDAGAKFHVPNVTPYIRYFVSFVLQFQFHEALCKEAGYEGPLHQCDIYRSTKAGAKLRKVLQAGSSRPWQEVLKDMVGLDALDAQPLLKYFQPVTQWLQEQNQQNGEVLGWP
# [3] = cited from earlier work; remark: listed apart in the source
# [4] = with captopril 10 μM, + captopril 10 μM
smiles,measurement,setting,value
"CC(=O)N[C@@H](CO)C(=O)N[C@@H](CC(=O)O)C(=O)N[C@@H](CCCCN)C(=O)N1CCC[C@H]1C(N)=O [AcSDKP-NH2, N-acetyl-Ser-Asp-Lys-Pro-NH2] (Ac-SDKP-NH2)",modification after 3 freezing-thawing cycles,[1],no adverse modification
same,AUC0-inf,in vivo; plasma,1490 ng·h/mL
same,Vd,in vivo; plasma,0.284 L/kg
same,clearance,in vivo; plasma,8.1 mL/min/kg
same,half-life,in vivo; plasma,23.1 min
same,level at 5 min,in vivo; plasma,3400 ng/mL
same,level at 10 min,in vivo; plasma,2680 ng/mL
same,level at 0.25 h,in vivo; plasma,1720 ng/mL
same,level at 0.5 h,in vivo; plasma,1010 ng/mL
same,level at 1 h,in vivo; plasma,450 ng/mL
same,level at 2 h,in vivo; plasma,82 ng/mL
same,level at 4 h,in vivo; plasma,3 ng/mL
same,AUC0-inf,"in vivo; plasma, 0.82 mg/kg",1230 ng·h/mL
same,Vd,"in vivo; plasma, 0.82 mg/kg",0.338 L/kg
same,half-life,"in vivo; plasma, 0.82 mg/kg",23.3 min
same,level at 5 min,"in vivo; plasma, 0.82 mg/kg",2830 ng/mL
same,level at 10 min,"in vivo; plasma, 0.82 mg/kg",2330 ng/mL
same,level at 3 h,"in vivo; plasma, 0.82 mg/kg",16 ng/mL
same,level at 4 h,"in vivo; plasma, 0.82 mg/kg",3 ng/mL
same,AUC0-inf,"in vivo; plasma, 1 mg/kg",1650 ng·h/mL
same,Vd,"in vivo; plasma, 1 mg/kg",0.266 L/kg
same,clearance,"in vivo; plasma, 1 mg/kg",8.1 mL/min/kg
same,degradation by the ACE present in mouse plasma,[2],not degraded
same,"remaining at 10 min, 100 nM",human ACE; [4],90%
same,"remaining at 1 h, 100 nM",human ACE; [4],78%
same,"remaining at 2 h, 100 nM",human ACE; [4],95%
same,"remaining at 4 h, 100 nM",human ACE; [4],104%
same,"remaining at 24 h, 100 nM",human ACE; [4],117%
same,"remaining at 10 min, 100 nM",human ACE; without captopril,79%
same,"remaining at 0.5 h, 100 nM",human ACE; without captopril,100%
same,"remaining at 1 h, 100 nM",human ACE; without captopril,116%
same,"remaining at 2 h, 100 nM",human ACE; without captopril,116%
same,"remaining at 4 h, 100 nM",human ACE; without captopril,107%
same,"remaining at 24 h, 100 nM",human ACE; without captopril,86%
"CC(=O)N[C@@H](CO)C(=O)N[C@@H](CC(=O)O)C(=O)N[C@@H](CCCCN)C(=O)N1CCC[C@H]1C(=O)O [AcSDKP, N-acetyl-Ser-Asp-Lys-Pro] (Ac-SDKP-OH; C-terminus assumed)",bound to the plasma proteins,plasma proteins,< 1%
same,catalytic effectiveness of N-terminal site of ACE relative to C-terminal site,N-terminal site of ACE,50 times
same,Vd,in vivo; plasma,0.353 L/kg
same,level at time molar at 5 min,in vivo; plasma,5660 nM
same,level at time molar at 10 min,in vivo; plasma,4980 nM
same,level at time molar at 0.25 h,in vivo; plasma,4040 nM
same,level at time molar at 1 h,in vivo; plasma,1000 nM
same,level at time molar at 2 h,in vivo; plasma,218 nM
same,level at time molar at 3 h,in vivo; plasma,60 nM
same,level at time molar at 4 h,in vivo; plasma,22 nM
same,level at time molar at 5 h,in vivo; plasma,11 nM
same,level at time molar at 5 min,"in vivo; plasma, 1.2 mg/kg",1820 nM
same,level at time molar at 10 min,"in vivo; plasma, 1.2 mg/kg",514 nM
same,level at time molar at 0.25 h,"in vivo; plasma, 1.2 mg/kg",194 nM
same,level at time molar at 0.5 h,"in vivo; plasma, 1.2 mg/kg",38 nM
same,level at time molar at 1 h,"in vivo; plasma, 1.2 mg/kg",8.2 nM
same,level at time molar at 2 h,"in vivo; plasma, 1.2 mg/kg",2.2 nM
same,CL renal,"in vivo; urine and plasma, 1 mg/kg",11.2 mL/min/kg
same,dose excreted,"in vivo; urine, 1.2 mg/kg",10.1%
same,"remaining at 10 min, 100 nM",human ACE; [4],90%
same,"remaining at 0.5 h, 100 nM",human ACE; [4],100%
same,"remaining at 1 h, 100 nM",human ACE; [4],85%
same,"remaining at 2 h, 100 nM",human ACE; [4],85%
same,"remaining at 4 h, 100 nM",human ACE; [4],100%
same,"remaining at 10 min, 100 nM",human ACE; without captopril,82%
same,"remaining at 0.5 h, 100 nM",human ACE; without captopril,75%
same,"remaining at 1 h, 100 nM",human ACE; without captopril,50%
same,"remaining at 2 h, 100 nM",human ACE; without captopril,25%
same,"remaining at 4 h, 100 nM",human ACE; without captopril,7%
same,"concentration in the plasma, minimum value",[3]; between two 50 mg doses of captopril,2 nM
same,urinary clearance relative to endogenous creatinine clearance,[3]; with an ACE inhibitor,69±27%
